One series addresses T1, hPPARα (Homo sapiens, UniProt Q07869).
T1 sequence (Q07869 167-468): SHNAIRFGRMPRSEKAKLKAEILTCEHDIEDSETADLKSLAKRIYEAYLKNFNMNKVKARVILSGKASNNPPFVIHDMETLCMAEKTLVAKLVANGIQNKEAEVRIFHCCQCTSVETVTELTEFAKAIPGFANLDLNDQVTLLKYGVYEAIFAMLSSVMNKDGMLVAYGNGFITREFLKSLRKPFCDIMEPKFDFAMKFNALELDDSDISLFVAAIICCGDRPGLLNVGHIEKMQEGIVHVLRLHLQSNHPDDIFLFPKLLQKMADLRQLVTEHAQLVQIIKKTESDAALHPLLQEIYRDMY
In words: PPAR transactivation assay, human chimeric PPAR/Gal4 reporter luciferase system in Cos-7 cells (PPARα). It is filed as cell-based. Particulars: for Emax: COS-7, read-out: efficiencies times higher than the prior art compound WY-14,643; for Emax at 10 µM: COS-7, read-out: Efficacy (%) at 10 µmol/L PPARα. As for the experimental part: (§1) Transfections were stopped after 16 h by adding DMEM/10% FCS. Cells were detached with trypsin, re-seeded in 96-well plates for 6 h in DMEM/10% FCS, and incubated for 24 h in DMEM/0.2% FCS with increasing concentrations of the test compounds or vehicle (DMSO, 0.1% final concentration). At the end of the experiment, cells were washed once with ice-cold PBS, lysed, and luciferase and β-galactosidase activities were measured. Luciferase activity was normalised to that of the internal control, β-galactosidase. All transfection experiments were performed at least five times.
(§2) EC50 values against human PPARα/Gal4, PPARβ/δ/Gal4 and PPARγ/Gal4 receptors.

A further series relates to THP-1 cells. In words: Cytotoxicity, Annexin V-FITC/PI dual staining by flow cytometry. The class given is cell-based, human. The note with it: 30 and 100 µM, 24 h. As for the experimental part:
The cytotoxicity of tetrahydroquinoline and quinoline esters 5a, 5b, 8a and 8b was evaluated at 30 and 100 µM by flow cytometry to assess cell survival using an Annexin V-FITC/PI dual staining assay. THP-1 cells (3 × 10^4 cells per well) were seeded in 24-well plates and allowed to grow overnight. The medium was then replaced and incubations with the different compounds or DMSO were performed during 24 h. Then, all cells were processed with the Annexin V-assay kit (ANXCFK7, Immunostep, Salamanca, Spain) according to the manufacturer's instruction. A Becton Dickinson LSR Fortessa cytometer (BD Biosciences, Franklin Lakes, NJ, USA) was used for samples, and cell analysis were performed using FACSDiva X20 software.
The potential cytotoxic effects of the compounds of the invention 5a, 5b, 8a, and 8b on the human macrophage cell line THP-1 were evaluated by flow cytometry to assess cell survival using an Annexin V-FITC/PI dual staining assay. The THP-1 cells were treated with concentrations of 30 and 100 µM for 24 h.

For a further series, the target named is T2, hPPARβ/δ (Homo sapiens, UniProt Q03181).
T2 sequence (Q03181 171-441): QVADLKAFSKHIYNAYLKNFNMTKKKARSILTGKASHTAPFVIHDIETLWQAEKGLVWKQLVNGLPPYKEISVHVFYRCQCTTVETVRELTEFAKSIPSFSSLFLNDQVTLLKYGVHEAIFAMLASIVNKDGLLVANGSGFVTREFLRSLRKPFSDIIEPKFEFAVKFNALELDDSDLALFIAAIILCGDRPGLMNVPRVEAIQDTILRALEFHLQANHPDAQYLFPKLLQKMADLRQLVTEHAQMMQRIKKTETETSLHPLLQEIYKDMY
In words: PPAR transactivation assay, human chimeric PPAR/Gal4 reporter luciferase system in Cos-7 cells (PPARβ/δ). It is filed as cell-based. Particulars: for Emax at 10 µM: COS-7, read-out: Efficacy (%) at 10 µmol/L PPARβ/δ; for EC50: human PPARβ/δ/Gal4, Cos-7 cells, concentration range 0.001-10 µmol/L, NA: not active. As for the experimental part: as §1, §2

Series [1] concerns hPPARα, hPPARβ/δ, and hPPARγ. In words: PPAR transactivation assays, agonist profile over the three isoforms. Particulars: always with partial activity on the PPARγ isoform.
Series [2] relates to TNFα-induced proinflammatory genes. Nature of the series: TNFα-induced pro-inflammatory gene expression by RT-qPCR in L929sA WT cells. The class given is cell-based, mouse. Particulars: 10 µM for 1 h, then TNFa, total induction time 6 h. The protocol: (§3) RNA was isolated using the RNeasy Purification Kit (Qiagen) according to the manufacturer's instructions. cDNA was synthesised using a PrimeScript kit (Takara). RT-qPCR was performed using Light Cycler 480 SYBR Green I Master Mix (Roche).
(§4) PPARs play crucial roles in controlling inflammatory responses. NF-κB is a transcription factor that plays a pivotal role in the expression of multiple genes involved in the immune and inflammatory responses. To study the potential anti-inflammatory effects of the tetrahydroquinolines and quinolines of the invention, the NF-κB-dependent physiological human IL-8 promoter construct, p1481.IL8P-Luc+, which is stably integrated into L929sA cells, was tested. After transfection, cells were treated at 10 µM with 5a, 5b, 8a, or 8b prior to TNFa stimulation. […] Given the significant decrease in NF-κB-IL8P-Luc+ reporter gene activity observed after treatment with the 2- or 3-prenylated tetrahydroquinolines 5a and 5b and the 3-prenylated quinoline 8b, their potential anti-inflammatory effects at the transcriptional level for other inflammatory mediators was evaluated. To achieve this, the L929sA WT cells were treated with 5a, 5b and 8b at 10 µM for 1 h, followed by TNFa stimulation for a total induction time of 6 h. The expression of inflammatory genes was evaluated by RT-qPCR.

A further series deals with Pdk4. Nature of the series: Pdk4 mRNA expression by RT-qPCR in L929sA WT cells. It is filed as cell-based, mouse. The note with it: 10 µM, 6 h. The protocol:
as §3
(§5) Pyruvate Dehydrogenase Kinase 4 gene (Pdk4), a well-known target gene of PPARs, encodes a protein that regulates the phosphorylation and inactivation of the pyruvate dehydrogenase complex in response to physiological conditions. This response switches the energy source from glucose to fatty acids to maintain blood glucose levels to, thereby, increase lipid metabolism. Because it is a well-known target gene of PPARs, the effect of the 2- and 3-prenylated esters of tetrahydroquinolines and quinolines on a Pdk4 region reported to bind PPARα, was evaluated. The L929sA cells that were stably transfected with a PDK4-(PPRE)3-Luc+ reporter gene construct were used.

A further series concerns PDK4-(PPRE)3-Luc+. In words: Pdk4 transactivation assay (PDK4-(PPRE)3-Luc+ reporter in L929sA cells). It is filed as cell-based, mouse. Particulars: 10 µM, 6 h, L929sA cells; compared to GW7647 at 1 µM. As for the experimental part: Transfection of L929sA cells stably expressing reporter genes was performed using the calcium phosphate precipitation protocol according to standard procedures with a 10-fold excess of the plasmid of interest in a pGL3-basic vector containing Luc+, a modified firefly luciferase gene (Promega Biotec, Madison, Wis,) USA. USA). The Pdk4 reporter was created using an enhancer site linked to the Pdk4 promoter containing three PPRE extracted from mouse liver genomic DNA. The aforementioned plasmid construct was then introduced into a pMet7 backbone, which had previously been cloned with a luciferase gene site, using Xhol and Sacl cut sites. The resulting construct was subjected to geneticin (neomycin) antibiotic selection to isolate individual clones. A stable cell line, designated Pdk4-Luc+, was subsequently established in L929sA cells, which also contained a constitutively expressed galactosidase reporter and a neomycin selection cassette.
as §5

In another series the target is T3, hPPARγ (Homo sapiens, UniProt P37231).
T3 sequence (P37231 238-505): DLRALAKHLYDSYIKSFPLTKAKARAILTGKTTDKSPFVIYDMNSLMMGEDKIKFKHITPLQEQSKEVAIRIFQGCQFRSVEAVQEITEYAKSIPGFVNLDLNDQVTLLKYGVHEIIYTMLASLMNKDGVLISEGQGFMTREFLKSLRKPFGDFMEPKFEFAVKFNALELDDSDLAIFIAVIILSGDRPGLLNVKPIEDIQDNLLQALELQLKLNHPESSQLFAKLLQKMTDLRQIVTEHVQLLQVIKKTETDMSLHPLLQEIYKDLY
In words: PPAR transactivation assay, human chimeric PPAR/Gal4 reporter luciferase system in Cos-7 cells (PPARγ). The class given is cell-based. Particulars: for Emax at 10 µM: COS-7, read-out: Efficacy (%) at 10 µmol/L PPARγ; for EC50: human PPARγ/Gal4, Cos-7 cells, concentration range 0.001-10 µmol/L, NA: not active. The protocol:
as §1, §2

For a further series, the system named is NF-κB-IL8P-Luc+. Nature of the series: NF-κB-IL8P transactivation assay (TNFα-stimulated L929sA cells). The class given is cell-based, mouse. The note with it: 10 µM, 1 h before TNF (2000 IU/ml), total induction time 6 h; compared to GW7647. The protocol: L929sA mouse fibroblasts were stably transfected using the calcium phosphate precipitation protocol, as described previously with p1481.IL8P-Luc+ plasmid construct. The indicated induction was performed at least in triplicates. All conditions were solvent-controlled. Subsequently, the cells were washed with PBS and lysed using TROPIX lysis buffer. Cellular luciferase levels were normalised to those of β-galactosidase (TROPIX, Bedford, MA, USA).
as §4

Regarding `CCOC(=O)CC/C(C)=C/CC1Cc2cc(OCc3ccccc3)ccc2N(C)C1C` (stereo not shown) [Compound 5b, Ethyl (E)-6-(6-(benzyloxy)-1,2-dimethyl-1,2,3,4-tetrahydroquinolin-3-yl)-4-methylhex-4-enoate], on hPPARα, the response was half-maximal at 1.9 µM (EC50), the Emax was in the range of 300 to 400% and the Emax at 10 µM is 328%. The “cytotoxic effects (cell survival)” value in the series with THP-1 cells is given as “No cytotoxic effects were observed”. Besides, at hPPARβ/δ, the Emax at 10 µM was found to be 7% and the EC50 was 5.8 µM. Moreover, the “PPAR agonist activity profile” value in [1] is recorded as “selective PPARα”. In addition, the “transcription of TNFα-induced proinflammatory genes” value in [2] was “downregulated the transcription of TNFα-induced proinflammatory genes such as Cc/5 and II-6”. Moreover, the “expression of Pdk4 mRNA” value in the series with Pdk4 is “increased expression levels of Pdk4”. The “transactivation of the PDK4-Luc+ indicator” value with PDK4-(PPRE)3-Luc+ was “increased the transactivation of the PDK4-Luc+ indicator”. At hPPARγ, the Emax at 10 µM amounted to 15% and the EC50 stood at 16.9 µM. Also, the “transactivation of the TNFα-dependent NF-κB-driven reporter” value in the series on NF-κB-IL8P-Luc+ is “can repress the transactivation of the TNFα-dependent NF-κB-driven reporter”.
`C/C(=C\CCC1CCc2cc(OCc3ccccc3)ccc2N1C)CCC(=O)O` (stereo not shown) [Compound 6a, (E)-7-(6-(benzyloxy)-1-methyl-1,2,3,4-tetrahydroquinolin-2-yl)-4-methylhept-4-enoic acid]: the results for the EC50 at hPPARα, on hPPARβ/δ and at hPPARγ were 2.9 µM, 4.6 µM and 3.9 µM, respectively. In addition, the Emax at 10 µM on hPPARα amounted to 144%; on hPPARβ/δ, 73%; on hPPARγ, 36%. The “PPAR agonist activity profile” value in series [1] is “pan-PPAR agonist activity”.
With `C/C(=C\CC1Cc2cc(OCc3ccccc3)ccc2N(C)C1C)CCC(=O)O` (stereo not shown) [Compound 6b, (E)-6-(6-(benzyloxy)-1,2-dimethyl-1,2,3,4-tetrahydroquinolin-3-yl)-4-methylhex-4-enoic acid], at hPPARα, the EC50 came to 1.3 µM, the Emax lay within 300 to 400% and the Emax at 10 µM turned out to be 461%. Moreover, on hPPARβ/δ, the Emax at 10 µM is 35% and the EC50 amounted to 5.8 µM. Besides, the “PPAR agonist activity profile” value in series [1] is reported as “selective PPARα”. Moreover, at hPPARγ, the Emax at 10 µM came out at 24% and a half-maximal response (EC50) required 1.7 µM.
On to `CCOC(=O)CC/C(C)=C/CCc1ccc2cc(OCc3ccccc3)ccc2n1` [Compound 8a, Ethyl (E)-7-(6-(benzyloxy)quinolin-2-yl)-4-methylhept-4-enoate], for which, at hPPARα, the EC50 worked out at 2.8 µM and the Emax at 10 µM was 210%. For the same compound, the “cytotoxic effects (cell survival)” value in the series on THP-1 cells was “No cytotoxic effects were observed”. Moreover, on hPPARβ/δ, the Emax at 10 µM was 32% and a half-maximal response (EC50) required 2 µM. Moreover, in the series on PDK4-(PPRE)3-Luc+, the “transactivation of the PDK4-Luc+ indicator” value is “increased the transactivation of the PDK4-Luc+ indicator”.
Consider `CCOC(=O)CC/C(C)=C/Cc1cc2cc(OCc3ccccc3)ccc2nc1C` [Compound 8b, Ethyl (E)-6-(6-(benzyloxy)-2-methylquinolin-3-yl)-4-methylhex-4-enoate], for which the EC50 at hPPARα was determined as 2.2 µM; at hPPARβ/δ, 7.9 µM; on hPPARγ, 1 µM. Further, the Emax at 10 µM at hPPARα came to 221%; at hPPARβ/δ it was 2%; at hPPARγ it was 37%. Further, in the series with THP-1 cells, the “cytotoxic effects (cell survival)” value was “No cytotoxic effects were observed”. In addition, the “PPAR agonist activity profile” value in [1] is recorded as “dual PPARα/γ agonist activity”. Besides, the “transcription of TNFα-induced proinflammatory genes” value in series [2] is “downregulated the transcription of TNFα-induced proinflammatory genes such as Cc/5 and II-6”. Moreover, in the series with NF-κB-IL8P-Luc+, the “transactivation of the TNFα-dependent NF-κB-driven reporter” value was “can repress the transactivation of the TNFα-dependent NF-κB-driven reporter”.
`C/C(=C\CCc1ccc2cc(OCc3ccccc3)ccc2n1)CCC(=O)O` [Compound 9a, (E)-7-(6-(benzyloxy)quinolin-2-yl)-4-methylhept-4-enoic acid]: the EC50 turned out to be 3.6 µM at hPPARα, 1.1 µM at hPPARβ/δ and 3.3 µM at hPPARγ. For the same compound, the Emax at 10 µM on hPPARα worked out at 104%; at hPPARβ/δ, 14%; at hPPARγ, 39%. Moreover, the “PPAR agonist activity profile” value in [1] was “dual PPARα/γ agonist activity”.
For the compound `C/C(=C\Cc1cc2cc(OCc3ccccc3)ccc2nc1C)CCC(=O)O` [Compound 9b, (E)-6-(6-(benzyloxy)-2-methylquinolin-3-yl)-4-methylhex-4-enoic acid], the EC50 on hPPARα was 1.8 µM; on hPPARβ/δ, 5.1 µM; at hPPARγ it was 0.9 µM. For the same compound, the figures for the Emax at 10 µM on hPPARα, on hPPARβ/δ and on hPPARγ were 218%, 2% and 25%, respectively. In addition, in series [1], the “PPAR agonist activity profile” value is “dual PPARα/γ agonist activity”.
